# Assay results reported in paper PMC10004634 (PLOS ONE, 2023).
# Where two headings read alike, the source gives them in different places.
# Tests used:
# [1] = molecular target: T1, ABL1(E255K)-phosphorylated (Homo sapiens, UniProt P00519, E255K); experiment: biochemical; parameters: KINOMEscan scanMAX competition binding, DNA-tagged kinases, qPCR read-out, percent control at 300 nM
# T1 construct: phosphorylated
# [2] = molecular target: T2, ABL1(F317L)-nonphosphorylated (Homo sapiens, UniProt P00519, F317L); experiment: biochemical; parameters: KINOMEscan scanMAX competition binding, DNA-tagged kinases, qPCR read-out, percent control at 300 nM
# T2 construct: nonphosphorylated
# BMPR2 = BMPR2 (Homo sapiens, UniProt Q13873); experiment: biochemical; parameters: KINOMEscan scanMAX competition binding, DNA-tagged kinases, qPCR read-out, percent control at 300 nM
# CDK7 = CDK7 (Homo sapiens, UniProt P50613); experiment: biochemical; parameters: KINOMEscan scanMAX competition binding, DNA-tagged kinases, qPCR read-out, percent control at 300 nM
# CDK8 = CDK8 (Homo sapiens, UniProt P49336); experiment: biochemical; parameters: KINOMEscan scanMAX competition binding, DNA-tagged kinases, qPCR read-out, percent control at 300 nM
# CLK1 = CLK1 (Homo sapiens, UniProt P49759); experiment: biochemical; parameters: KINOMEscan scanMAX competition binding, DNA-tagged kinases, qPCR read-out, percent control at 300 nM
# CSNK1G1 = CSNK1G1 (Homo sapiens, UniProt Q9HCP0); experiment: biochemical; parameters: KINOMEscan scanMAX competition binding, DNA-tagged kinases, qPCR read-out, percent control at 300 nM
# CSNK2A1 = CSNK2A1 (Homo sapiens, UniProt P68400); experiment: biochemical; parameters: KINOMEscan scanMAX competition binding, DNA-tagged kinases, qPCR read-out, percent control at 300 nM
# DAPK1 = DAPK1 (Homo sapiens, UniProt P53355); experiment: biochemical; parameters: KINOMEscan scanMAX competition binding, DNA-tagged kinases, qPCR read-out, percent control at 300 nM
# ERBB4 = ERBB4 (Homo sapiens, UniProt Q15303); experiment: biochemical; parameters: KINOMEscan scanMAX competition binding, DNA-tagged kinases, qPCR read-out, percent control at 300 nM
# ERK1 = molecular target: T3, ERK1 (Homo sapiens, UniProt P27361); experiment: biochemical; parameters: KINOMEscan scanMAX competition binding, DNA-tagged kinases, qPCR read-out, percent control at 300 nM
# T3 construct: gene MAPK3
# ERK5 = molecular target: T4, ERK5 (Homo sapiens, UniProt Q13164); experiment: biochemical; parameters: KINOMEscan scanMAX competition binding, DNA-tagged kinases, qPCR read-out, percent control at 300 nM
# T4 construct: gene MAPK7
# FAK = molecular target: T5, FAK (Homo sapiens, UniProt Q05397); experiment: biochemical; parameters: KINOMEscan scanMAX competition binding, DNA-tagged kinases, qPCR read-out, percent control at 300 nM
# T5 construct: gene PTK2
# MEK3 = molecular target: T6, MEK3 (Homo sapiens, UniProt P46734); experiment: biochemical; parameters: KINOMEscan scanMAX competition binding, DNA-tagged kinases, qPCR read-out, percent control at 300 nM
# T6 construct: gene MAP2K3
# MET = MET (Homo sapiens, UniProt P08581); experiment: biochemical; parameters: KINOMEscan scanMAX competition binding, DNA-tagged kinases, qPCR read-out, percent control at 300 nM
# MLK1 = molecular target: T7, MLK1 (Homo sapiens, UniProt P80192); experiment: biochemical; parameters: KINOMEscan scanMAX competition binding, DNA-tagged kinases, qPCR read-out, percent control at 300 nM
# T7 construct: gene MAP3K9
# PRKD1 = PRKD1 (Homo sapiens, UniProt Q15139); experiment: biochemical; parameters: KINOMEscan scanMAX competition binding, DNA-tagged kinases, qPCR read-out, percent control at 300 nM
# ROCK1 = ROCK1 (Homo sapiens, UniProt Q13464); experiment: biochemical; parameters: KINOMEscan scanMAX competition binding, DNA-tagged kinases, qPCR read-out, percent control at 300 nM
# [3] = molecular target: T8, RPS6KA5(Kin.Dom.2-C-terminal) (Homo sapiens, UniProt O75582); experiment: biochemical; parameters: KINOMEscan scanMAX competition binding, DNA-tagged kinases, qPCR read-out, percent control at 300 nM
# T8 construct: Kin.Dom.2-C-terminal
# SRC = SRC (Homo sapiens, UniProt P12931); experiment: biochemical; parameters: KINOMEscan scanMAX competition binding, DNA-tagged kinases, qPCR read-out, percent control at 300 nM
# TAK1 = molecular target: T9, TAK1 (Homo sapiens, UniProt O43318); experiment: biochemical; parameters: KINOMEscan scanMAX competition binding, DNA-tagged kinases, qPCR read-out, percent control at 300 nM
# T9 construct: gene MAP3K7
# LYNa = LYNa (Homo sapiens, UniProt P07948); experiment: mobility shift assay (MSA)
# CAMK2B = CAMK2B (Homo sapiens, UniProt Q13554); experiment: biochemical; parameters: KINOMEscan scanMAX competition binding, DNA-tagged kinases, qPCR read-out, percent control at 300 nM
# ACVRL1 = ACVRL1 (Homo sapiens, UniProt P37023); experiment: biochemical; parameters: KINOMEscan scanMAX competition binding, DNA-tagged kinases, qPCR read-out, percent control at 300 nM
# [4] = read-out: Percent control / Acalabrutinib
# [5] = read-out: Percent control / Ibrutinib
# [6] = read-out: Percent control / Tirabrutinib
# [7] = read-out: Percent control / Zanubrutinib
# LYNa, sequence (P07948 whole entry): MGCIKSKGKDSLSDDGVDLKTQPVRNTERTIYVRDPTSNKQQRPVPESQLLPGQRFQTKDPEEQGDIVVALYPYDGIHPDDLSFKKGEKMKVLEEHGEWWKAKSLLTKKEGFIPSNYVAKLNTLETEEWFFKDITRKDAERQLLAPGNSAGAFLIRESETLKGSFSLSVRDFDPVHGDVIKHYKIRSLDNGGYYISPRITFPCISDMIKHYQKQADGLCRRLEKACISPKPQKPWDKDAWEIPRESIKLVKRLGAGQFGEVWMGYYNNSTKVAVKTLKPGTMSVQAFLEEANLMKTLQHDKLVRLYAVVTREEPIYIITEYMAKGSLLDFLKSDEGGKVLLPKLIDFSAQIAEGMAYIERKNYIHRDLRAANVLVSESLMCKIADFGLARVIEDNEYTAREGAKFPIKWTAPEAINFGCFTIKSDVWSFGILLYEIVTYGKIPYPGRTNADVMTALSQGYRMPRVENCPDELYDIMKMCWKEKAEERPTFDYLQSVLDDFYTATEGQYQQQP
# ROCK1, sequence (Q13464 whole entry): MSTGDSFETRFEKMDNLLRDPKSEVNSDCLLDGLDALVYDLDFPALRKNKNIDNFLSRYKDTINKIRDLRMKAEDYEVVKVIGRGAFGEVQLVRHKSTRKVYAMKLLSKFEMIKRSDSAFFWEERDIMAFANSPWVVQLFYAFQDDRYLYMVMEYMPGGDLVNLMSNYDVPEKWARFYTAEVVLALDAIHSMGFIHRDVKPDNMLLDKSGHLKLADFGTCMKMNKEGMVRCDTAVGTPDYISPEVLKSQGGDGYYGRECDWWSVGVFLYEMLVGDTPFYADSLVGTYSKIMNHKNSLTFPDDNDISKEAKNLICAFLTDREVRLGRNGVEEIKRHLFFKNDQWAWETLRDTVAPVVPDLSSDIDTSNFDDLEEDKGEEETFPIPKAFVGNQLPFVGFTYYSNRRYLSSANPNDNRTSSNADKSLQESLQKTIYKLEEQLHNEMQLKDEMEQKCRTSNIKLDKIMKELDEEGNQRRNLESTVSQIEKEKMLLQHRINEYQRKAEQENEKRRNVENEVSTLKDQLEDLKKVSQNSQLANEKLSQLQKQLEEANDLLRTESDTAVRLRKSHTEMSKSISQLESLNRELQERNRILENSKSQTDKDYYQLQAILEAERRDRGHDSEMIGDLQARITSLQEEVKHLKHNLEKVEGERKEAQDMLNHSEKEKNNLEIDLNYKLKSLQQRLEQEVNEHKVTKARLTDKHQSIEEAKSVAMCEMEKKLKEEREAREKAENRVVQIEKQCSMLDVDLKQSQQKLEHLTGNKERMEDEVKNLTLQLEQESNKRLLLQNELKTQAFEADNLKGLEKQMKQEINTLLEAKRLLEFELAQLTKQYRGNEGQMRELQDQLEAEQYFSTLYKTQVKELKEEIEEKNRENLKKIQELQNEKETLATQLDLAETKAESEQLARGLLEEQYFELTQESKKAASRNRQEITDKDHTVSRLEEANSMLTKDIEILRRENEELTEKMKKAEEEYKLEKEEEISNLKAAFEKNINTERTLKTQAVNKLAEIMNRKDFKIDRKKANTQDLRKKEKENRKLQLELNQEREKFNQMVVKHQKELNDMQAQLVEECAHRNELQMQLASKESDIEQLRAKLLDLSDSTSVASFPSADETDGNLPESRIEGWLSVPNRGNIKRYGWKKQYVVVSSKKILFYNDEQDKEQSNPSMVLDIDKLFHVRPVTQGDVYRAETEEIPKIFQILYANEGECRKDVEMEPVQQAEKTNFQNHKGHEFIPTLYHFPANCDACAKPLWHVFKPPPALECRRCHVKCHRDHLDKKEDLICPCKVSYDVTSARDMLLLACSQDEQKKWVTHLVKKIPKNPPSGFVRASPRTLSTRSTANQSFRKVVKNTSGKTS
# T7 sequence (P80192 whole entry): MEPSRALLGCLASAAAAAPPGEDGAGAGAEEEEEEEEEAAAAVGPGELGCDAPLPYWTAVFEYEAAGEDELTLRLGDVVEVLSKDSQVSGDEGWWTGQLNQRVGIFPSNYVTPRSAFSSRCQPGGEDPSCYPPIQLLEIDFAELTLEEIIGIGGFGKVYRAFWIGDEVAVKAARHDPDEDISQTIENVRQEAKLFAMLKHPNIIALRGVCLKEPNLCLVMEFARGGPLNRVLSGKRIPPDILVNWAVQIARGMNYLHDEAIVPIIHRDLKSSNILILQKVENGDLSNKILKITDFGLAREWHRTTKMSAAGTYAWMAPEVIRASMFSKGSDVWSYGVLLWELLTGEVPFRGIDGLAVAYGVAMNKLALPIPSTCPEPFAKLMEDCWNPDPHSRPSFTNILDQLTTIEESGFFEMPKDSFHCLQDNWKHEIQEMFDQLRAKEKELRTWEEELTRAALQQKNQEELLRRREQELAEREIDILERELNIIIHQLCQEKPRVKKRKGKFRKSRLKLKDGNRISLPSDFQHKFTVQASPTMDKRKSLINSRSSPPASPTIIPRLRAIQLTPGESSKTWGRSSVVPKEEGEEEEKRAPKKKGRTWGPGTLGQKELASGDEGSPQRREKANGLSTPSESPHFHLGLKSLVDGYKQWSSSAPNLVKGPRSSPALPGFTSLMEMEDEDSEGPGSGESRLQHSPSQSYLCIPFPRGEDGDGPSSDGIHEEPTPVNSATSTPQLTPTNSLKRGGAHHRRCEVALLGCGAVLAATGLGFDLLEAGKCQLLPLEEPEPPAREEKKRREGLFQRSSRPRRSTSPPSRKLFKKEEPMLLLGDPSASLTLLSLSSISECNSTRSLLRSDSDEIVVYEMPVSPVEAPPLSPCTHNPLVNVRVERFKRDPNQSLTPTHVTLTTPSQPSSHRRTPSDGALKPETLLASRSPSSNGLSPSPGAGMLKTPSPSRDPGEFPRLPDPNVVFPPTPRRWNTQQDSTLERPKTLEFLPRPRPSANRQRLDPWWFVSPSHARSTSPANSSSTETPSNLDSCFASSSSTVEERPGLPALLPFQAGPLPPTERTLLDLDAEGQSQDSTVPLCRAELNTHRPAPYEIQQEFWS
# T2 sequence (P00519 whole entry F317L): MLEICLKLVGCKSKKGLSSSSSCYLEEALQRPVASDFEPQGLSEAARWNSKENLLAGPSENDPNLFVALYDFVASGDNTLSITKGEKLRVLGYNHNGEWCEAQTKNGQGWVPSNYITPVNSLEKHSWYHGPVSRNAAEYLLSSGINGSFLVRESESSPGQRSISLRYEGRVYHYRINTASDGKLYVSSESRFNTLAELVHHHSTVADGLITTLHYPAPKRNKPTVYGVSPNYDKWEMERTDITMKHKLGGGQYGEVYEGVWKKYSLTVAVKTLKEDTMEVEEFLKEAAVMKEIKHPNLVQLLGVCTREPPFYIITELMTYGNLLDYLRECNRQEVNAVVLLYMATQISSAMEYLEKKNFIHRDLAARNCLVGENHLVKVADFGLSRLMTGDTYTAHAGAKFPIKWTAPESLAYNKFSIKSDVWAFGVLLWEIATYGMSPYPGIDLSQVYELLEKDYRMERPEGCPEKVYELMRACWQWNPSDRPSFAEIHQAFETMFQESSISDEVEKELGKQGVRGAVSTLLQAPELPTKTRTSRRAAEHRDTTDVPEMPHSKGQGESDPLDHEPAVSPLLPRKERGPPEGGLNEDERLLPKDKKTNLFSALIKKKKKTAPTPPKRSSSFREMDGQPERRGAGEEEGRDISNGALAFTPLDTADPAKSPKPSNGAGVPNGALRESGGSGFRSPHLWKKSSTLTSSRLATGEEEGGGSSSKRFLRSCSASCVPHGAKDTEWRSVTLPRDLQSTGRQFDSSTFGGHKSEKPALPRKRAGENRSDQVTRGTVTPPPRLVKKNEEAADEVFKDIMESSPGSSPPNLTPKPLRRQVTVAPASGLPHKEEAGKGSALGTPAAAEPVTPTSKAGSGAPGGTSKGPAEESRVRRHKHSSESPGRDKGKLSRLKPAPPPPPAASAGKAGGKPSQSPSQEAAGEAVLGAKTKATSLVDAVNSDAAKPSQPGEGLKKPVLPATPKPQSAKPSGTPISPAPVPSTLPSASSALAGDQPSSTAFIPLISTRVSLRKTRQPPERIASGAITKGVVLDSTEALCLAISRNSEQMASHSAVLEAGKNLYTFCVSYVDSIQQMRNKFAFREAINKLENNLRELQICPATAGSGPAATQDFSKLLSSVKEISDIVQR
# CDK7, sequence (P50613 whole entry): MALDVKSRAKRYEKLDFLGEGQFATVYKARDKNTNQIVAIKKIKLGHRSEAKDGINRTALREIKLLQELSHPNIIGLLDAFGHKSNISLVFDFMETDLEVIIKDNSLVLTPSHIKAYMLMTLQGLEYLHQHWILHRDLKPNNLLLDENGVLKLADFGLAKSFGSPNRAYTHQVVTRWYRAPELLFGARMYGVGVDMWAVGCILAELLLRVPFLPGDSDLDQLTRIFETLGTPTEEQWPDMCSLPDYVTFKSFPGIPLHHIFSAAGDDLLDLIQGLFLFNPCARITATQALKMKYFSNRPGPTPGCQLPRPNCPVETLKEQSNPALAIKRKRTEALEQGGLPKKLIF
# T1 sequence (P00519 whole entry E255K): as the sequence (P00519 whole entry F317L) above, with E255K, L317F counted along it
# ACVRL1, sequence (P37023 whole entry): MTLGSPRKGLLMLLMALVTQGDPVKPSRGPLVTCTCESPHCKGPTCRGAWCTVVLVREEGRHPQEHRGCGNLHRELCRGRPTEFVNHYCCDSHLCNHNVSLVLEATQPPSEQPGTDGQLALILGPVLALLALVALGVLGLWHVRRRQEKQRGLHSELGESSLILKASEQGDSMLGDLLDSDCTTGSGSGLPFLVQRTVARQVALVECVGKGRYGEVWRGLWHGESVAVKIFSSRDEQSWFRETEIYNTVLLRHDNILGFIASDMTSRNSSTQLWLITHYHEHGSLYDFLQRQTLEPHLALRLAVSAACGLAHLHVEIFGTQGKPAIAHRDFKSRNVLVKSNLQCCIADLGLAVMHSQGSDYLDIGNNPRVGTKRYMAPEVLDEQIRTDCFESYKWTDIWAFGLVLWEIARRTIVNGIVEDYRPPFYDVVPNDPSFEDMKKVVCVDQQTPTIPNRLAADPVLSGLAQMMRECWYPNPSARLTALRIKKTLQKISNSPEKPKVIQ
smiles,measurement,setting,value
CC#CC(=O)N1CCC[C@H]1c1nc(-c2ccc(C(=O)Nc3ccccn3)cc2)c2c(N)nccn12 [Acalabrutinib],remaining binding at 0.3 µM,[1]; [4],95%
same,remaining binding at 0.3 µM,[2]; [4],78%
same,remaining binding at 0.3 µM,BMPR2; [4],99%
same,remaining binding at 0.3 µM,CDK7; [4],68%
same,remaining binding at 0.3 µM,CDK8; [4],93%
same,remaining binding at 0.3 µM,CLK1; [4],92%
same,remaining binding at 0.3 µM,CSNK1G1; [4],90%
same,remaining binding at 0.3 µM,CSNK2A1; [4],99%
same,remaining binding at 0.3 µM,DAPK1; [4],94%
same,remaining binding at 0.3 µM,ERBB4; [4],7.7%
same,remaining binding at 0.3 µM,ERK1; [4],92%
same,remaining binding at 0.3 µM,ERK5; [4],97%
same,remaining binding at 0.3 µM,FAK; [4],79%
same,remaining binding at 0.3 µM,MEK3; [4],99%
same,remaining binding at 0.3 µM,MET; [4],90%
same,remaining binding at 0.3 µM,MLK1; [4],92%
same,remaining binding at 0.3 µM,PRKD1; [4],95%
same,remaining binding at 0.3 µM,ROCK1; [4],93%
same,remaining binding at 0.3 µM,[3]; [4],92%
same,remaining binding at 0.3 µM,SRC; [4],99%
same,remaining binding at 0.3 µM,TAK1; [4],86%
same,IC50,LYNa,> 10 µM
C=CC(=O)N1CCC[C@@H](n2nc(-c3ccc(Oc4ccccc4)cc3)c3c(N)ncnc32)C1 [Ibrutinib],remaining binding at 0.3 µM,[2]; [5],54%
same,remaining binding at 0.3 µM,CAMK2B; [5],90%
same,remaining binding at 0.3 µM,CSNK2A1; [5],90%
same,remaining binding at 0.3 µM,ERBB4; [5],0.15%
same,remaining binding at 0.3 µM,MEK3; [5],93%
CC#CC(=O)N1CC[C@@H](n2c(=O)n(-c3ccc(Oc4ccccc4)cc3)c3c(N)ncnc32)C1 [Tirabrutinib],remaining binding at 0.3 µM,ACVRL1; [6],94%
same,remaining binding at 0.3 µM,SRC; [6],95%
same,IC50,LYNa,3.49 µM
C=CC(=O)N1CCC([C@@H]2CCNc3c(C(N)=O)c(-c4ccc(Oc5ccccc5)cc4)nn32)CC1 [Zanubrutinib],remaining binding at 0.3 µM,[1]; [7],80%
same,remaining binding at 0.3 µM,ACVRL1; [7],75%
same,remaining binding at 0.3 µM,BMPR2; [7],93%
same,remaining binding at 0.3 µM,CAMK2B; [7],68%
same,remaining binding at 0.3 µM,CDK7; [7],100%
same,remaining binding at 0.3 µM,CDK8; [7],100%
same,remaining binding at 0.3 µM,CLK1; [7],90%
same,remaining binding at 0.3 µM,CSNK1G1; [7],91%
same,remaining binding at 0.3 µM,DAPK1; [7],87%
same,remaining binding at 0.3 µM,ERK1; [7],87%
same,remaining binding at 0.3 µM,ERK5; [7],84%
same,remaining binding at 0.3 µM,FAK; [7],100%
same,remaining binding at 0.3 µM,MET; [7],96%
same,remaining binding at 0.3 µM,MLK1; [7],84%
same,remaining binding at 0.3 µM,PRKD1; [7],82%
same,remaining binding at 0.3 µM,ROCK1; [7],92%
same,remaining binding at 0.3 µM,[3]; [7],100%
same,remaining binding at 0.3 µM,TAK1; [7],83%
